# Source: patent US4459290A, “C-23-Modified derivatives of OMT, pharmaceutical compositions and method of use” (priority 1982, dated 1984)
# Where two headings read alike, the source gives them in different places.
# How the values were obtained:
# [1] = tested on: Pasteurella hemolytica 23C; test: MIC, broth-dilution microtiter test (Table VII); type: cell-based; conditions: P. hemolytica 23C
# Method: (§1) Especially noteworthy is the improved activity against gram-negative bacteria for several derivatives when compared to the activity of OMT. […] The MIC's in Tables V and VI were determined by standard agar-dilution assays. The MIC's in Table VII were obtained using a conventional broth-dilution microtiter test.
# [2] = tested on: Pasteurella multocida 40G; test: MIC, broth-dilution microtiter test (Table VII); type: cell-based
# Method: as §1
# [3] = tested on: Pasteurella multocida 60A; test: MIC, broth-dilution microtiter test (Table VII); type: cell-based
# Method: as §1
# [4] = tested on: Staphylococcus aureus; test: MIC, broth-dilution microtiter test (Table VII); type: cell-based
# Method: as §1
# [5] = tested on: Pasteurella hemolytica 41D; test: MIC, broth-dilution microtiter test (Table VII); type: cell-based; conditions: P. hemolytica 41D
# Method: as §1
# [6] = tested on: Pasteurella multocida 68C; test: MIC, broth-dilution microtiter test (Table VII); type: cell-based; conditions: P. multocida 68C, broth-dilution microtiter
# Method: as §1
# [7] = tested on: Mycoplasma hyorhinis; test: MIC, broth-dilution microtiter test (Table VII); type: cell-based; conditions: M. hyorhinis, broth-dilution microtiter
# Method: as §1
# [8] = tested on: Mycoplasma synoviae; test: MIC, broth-dilution microtiter test (Table VII); type: cell-based
# Method: as §1
# [9] = tested on: Pasteurella multocida 22A; test: MIC, broth-dilution microtiter test (Table VII); type: cell-based
# Method: as §1
# [10] = tested on: Streptococcus sp. 80; test: MIC, broth-dilution microtiter test (Table VII); type: cell-based
# Method: as §1
# [11] = tested on: Pasteurella multocida 17E; test: MIC, broth-dilution microtiter test (Table VII); type: cell-based
# Method: as §1
# [12] = tested on: Mycoplasma gallisepticum; test: MIC, broth-dilution microtiter test (Table VII); type: cell-based
# Method: as §1
# [13] = tested on: Pasteurella hemolytica 22C; test: MIC, broth-dilution microtiter test (Table VII); type: cell-based; conditions: P. hemolytica 22C
# Method: as §1
# [14] = tested on: Streptococcus pyogenes C203; test: MIC, standard agar-dilution assay (Table V); type: cell-based
# Method: (§2) The MIC's in Tables V and VI were determined by standard agar-dilution assays. The MIC's in Table VII were obtained using a conventional broth-dilution microtiter test.
# [15] = tested on: Haemophilus influenzae Holt; test: MIC, standard agar-dilution assay (Table V); type: cell-based
# Method: as §2
# [16] = tested on: Escherichia coli TEM; test: MIC, standard agar-dilution assay (Table V); type: cell-based; conditions: E. coli TEM, agar dilution
# Method: as §2
# [17] = tested on: Haemophilus influenzae R252; test: MIC, standard agar-dilution assay (Table V); type: cell-based
# Method: as §2
# [18] = tested on: Streptococcus pneumoniae Park I; test: microbe, parasite or virus in culture; type: cell-based
# Method: as §1
# [19] = tested on: Pasteurella multocida; test: Protection of one-day-old chicks against Pasteurella multocida infection (Table IX); type: in vivo; conditions: subcutaneous 30 mg/kg × 2, 1 and 4 hours post-challenge
# Method: The C-23 modified derivatives of OMT have also shown in vivo antibacterial activity against infections induced by gram-negative bacteria. Table IX summarizes the results of tests in which illustrative compounds were evaluated against Pasteurella infections in one-day-old chicks. The compounds were administered by subcutaneous injection at a dosage of 30 mg/kg, 1 and 4 hours post-challenge of the chicks with Pasteurella multocida (0.1 ml of a twenty-hour tryptose broth culture of an avian P. multocida given subcutaneously). In the tests, all ten non-medicated infected chicks died within 24 hours of Pasteurella challenge.
# [20] = tested on: Staphylococcus aureus X400; test: MIC, standard agar-dilution assay (Table V); type: cell-based
# Method: as §1
# [21] = tested on: Escherichia coli EC14; test: MIC, standard agar-dilution assay (Table V); type: cell-based; conditions: E. coli EC14, agar dilution
# Method: as §1
# [22] = tested on: Staphylococcus epidermidis EPI2; test: MIC, standard agar-dilution assay (Table V); type: cell-based
# Method: as §1
# [23] = tested on: Staphylococcus aureus S13E; test: MIC, standard agar-dilution assay (Table V); type: cell-based
# Method: as §1
# [24] = tested on: Staphylococcus aureus V41; test: MIC, standard agar-dilution assay (Table V); type: cell-based
# Method: as §1
# [25] = tested on: Staphylococcus epidermidis EPI1; test: MIC, standard agar-dilution assay (Table V); type: cell-based
# Method: as §1
# [26] = tested on: Escherichia coli N10; test: MIC, standard agar-dilution assay (Table V); type: cell-based; conditions: E. coli N10, agar dilution
# Method: as §1
# [27] = tested on: Streptococcus Group 9960; test: MIC, standard agar-dilution assay (Table V); type: cell-based
# Method: as §1
# [28] = tested on: Streptococcus Group D X66; test: MIC, standard agar-dilution assay (Table V); type: cell-based
# Method: as §1
# [29] = tested on: Klebsiella pneumoniae KAE; test: MIC, standard agar-dilution assay (Table V); type: cell-based; conditions: K. pneumoniae KAE, agar dilution
# Method: as §1
# [30] = tested on: Staphylococcus aureus X1.1; test: MIC, standard agar-dilution assay (Table V); type: cell-based
# Method: as §1
# [31] = tested on: Klebsiella pneumoniae X26; test: MIC, standard agar-dilution assay (Table V); type: cell-based; conditions: K. pneumoniae X26, agar dilution
# Method: as §1
# [32] = tested on: Shigella sonnei N9; test: MIC, standard agar-dilution assay (Table V); type: cell-based
# Method: as §1
# [33] = P. multocida 40G, broth-dilution microtiter
# [34] = P. multocida 60A, avian isolate, broth-dilution microtiter
# [35] = S. aureus, broth-dilution microtiter
# [36] = M. synoviae, broth-dilution microtiter
# [37] = P. multocida 22A, broth-dilution microtiter
# [38] = Streptococcus sp. 80, broth-dilution microtiter
# [39] = P. multocida 17E, bovine isolate, broth-dilution microtiter
# [40] = M. gallisepticum, broth-dilution microtiter
# [41] = S. pyogenes C203, agar dilution
# [42] = H. influenzae Holt, ampicillin-sensitive strain, agar dilution
# [43] = H. influenzae R252, ampicillin-resistant strain, agar dilution
# [44] = S. pneumoniae Park I, agar dilution
# [45] = S. aureus X400, methicillin-resistant strain, agar dilution
# [46] = S. epidermidis EPI2, agar dilution
# [47] = S. aureus V41, penicillin-resistant strain, agar dilution
# [48] = S. epidermidis EPI1, agar dilution
# [49] = Streptococcus Group 9960, agar dilution
# [50] = Streptococcus Group D X66, agar dilution
# [51] = Escherichia coli, read-out: MIC
# [52] = Klebsiella pneumoniae, read-out: MIC
compound,measurement,setting,value
CCC1OC(=O)CC(O)C(C)C(OC2OC(C)C(O)C(N(C)C)C2O)C(CC=O)CC(C)C(=O)C=CC(C)=CC1CNC(=O)CNC(=O)C(C)NC(=O)OC(C)(C)C (stereo not drawn) [Compound 13],MIC,[1],> 50 µg/mL
same,MIC,[2]; [33],50 µg/mL
same,MIC,[3]; [34],50 µg/mL
same,MIC,[4]; [35],25 µg/mL
same,MIC,[5],> 50 µg/mL
same,MIC,[6],50 µg/mL
same,MIC,[7],50 µg/mL
same,MIC,[8]; [36],12.5 µg/mL
same,MIC,[9]; [37],> 50 µg/mL
same,MIC,[10]; [38],6.25 µg/mL
same,MIC,[11]; [39],50 µg/mL
same,MIC,[12]; [40],6.25 µg/mL
same,MIC,[13],> 50 µg/mL
same,MIC,[14]; [41],4 µg/mL
same,MIC,[15]; [42],64 µg/mL
same,MIC,[16],-- (MIC ≥ 128)
same,MIC,[17]; [43],64 µg/mL
same,MIC,[18]; [44],4 µg/mL
same,Number of deaths/number treated,[19],7/10
same,MIC,[20]; [45],32 µg/mL
same,MIC,[21],-- (MIC ≥ 128)
same,MIC,[22]; [46],32 µg/mL
same,MIC,"[23]; S. aureus S13E, agar dilution",32 µg/mL
same,MIC,[24]; [47],32 µg/mL
same,MIC,[25]; [48],16 µg/mL
same,MIC,[26],-- (MIC ≥ 128)
same,MIC,[27]; [49],32 µg/mL
same,MIC,[28]; [50],32 µg/mL
same,MIC,[29],-- (MIC ≥ 128)
same,MIC,"[30]; S. aureus X1.1, agar dilution",16 µg/mL
same,MIC,[31],-- (MIC ≥ 128)
CCC1OC(=O)CC(O)C(C)C(OC2OC(C)C(O)C(N(C)C)C2O)C(CC=O)CC(C)C(=O)C=CC(C)=CC1CNC(=O)CNC(=O)C(C)N (stereo not drawn) [Compound 14],MIC,[1],> 50 µg/mL
same,MIC,[2]; [33],> 50 µg/mL
same,MIC,[3]; [34],> 50 µg/mL
same,MIC,[4]; [35],> 50 µg/mL
same,MIC,[5],> 50 µg/mL
same,MIC,[6],> 50 µg/mL
same,MIC,[7],50 µg/mL
same,MIC,[8]; [36],6.25 µg/mL
same,MIC,[9]; [37],> 50 µg/mL
same,MIC,[10]; [38],25 µg/mL
same,MIC,[11]; [39],> 50 µg/mL
same,MIC,[12]; [40],12.5 µg/mL
same,MIC,[13],> 50 µg/mL
same,MIC,[14]; [41],16 µg/mL
same,MIC,[15]; [42],-- (MIC ≥ 128)
same,MIC,[16],-- (MIC ≥ 128)
same,MIC,[17]; [43],-- (MIC ≥ 128)
same,MIC,[18]; [44],16 µg/mL
same,Number of deaths/number treated,[19],10/10
same,MIC,[20]; [45],128 µg/mL
same,MIC,[21],-- (MIC ≥ 128)
same,MIC,[22]; [46],64 µg/mL
same,MIC,"[23]; S. aureus S13E, agar dilution",64 µg/mL
same,MIC,[24]; [47],64 µg/mL
same,MIC,[25]; [48],64 µg/mL
same,MIC,[26],-- (MIC ≥ 128)
same,MIC,[27]; [49],64 µg/mL
same,MIC,[28]; [50],64 µg/mL
same,MIC,[29],-- (MIC ≥ 128)
same,MIC,"[30]; S. aureus X1.1, agar dilution",64 µg/mL
same,MIC,[31],-- (MIC ≥ 128)
CCC1OC(=O)CC(O)C(C)C(OC2OC(C)C(O)C(N(C)C)C2O)C(CC=O)CC(C)C(=O)C=CC(C)(OCCc2ccccc2)C2CC12 (stereo not drawn) [Compound 18],MIC,"[1]; Pasteurella, read-out: MIC",25 µg/mL
same,MIC,"[2]; Pasteurella multocida, 40G",12.5 µg/mL
same,MIC,"[3]; Pasteurella multocida, 60A",12.5 µg/mL
same,MIC,[4]; Staphylococcus aureus,6.25 µg/mL
same,MIC,"[5]; Pasteurella, read-out: MIC",25 µg/mL
same,MIC,"[6]; Pasteurella multocida, read-out: MIC",25 µg/mL
same,MIC,[7]; read-out: MIC,25 µg/mL
same,MIC,[8]; Mycoplasmopsis synoviae,3.12 µg/mL
same,MIC,"[9]; Pasteurella multocida, 22A",12.5 µg/mL
same,MIC,"[10]; Streptococcus, SP.80",1.56 µg/mL
same,MIC,"[11]; Pasteurella multocida, 17E",12.5 µg/mL
same,MIC,[12]; Mycoplasmoides gallisepticum,1.56 µg/mL
same,MIC,"[13]; Pasteurella, read-out: MIC",25 µg/mL
same,MIC,"[14]; Streptococcus pyogenes, C203",1 µg/mL
same,MIC,[15]; Haemophilus influenzae,8 µg/mL
same,MIC,[16]; [51],64 µg/mL
same,MIC,"[17]; Haemophilus influenzae, R252",8 µg/mL
same,MIC,[18]; Streptococcus pneumoniae,0.25 µg/mL
same,MIC,"[20]; Staphylococcus aureus, X400",2 µg/mL
same,MIC,[21]; [51],> 128 µg/mL
same,MIC,"[22]; Staphylococcus epidermidis, EPI2",2 µg/mL
same,MIC,"[23]; Staphylococcus aureus, S13E",1 µg/mL
same,MIC,"[24]; Staphylococcus aureus, V41",2 µg/mL
same,MIC,"[25]; Staphylococcus epidermidis, EPI1",1 µg/mL
same,MIC,[26]; [51],> 128 µg/mL
same,MIC,[32],> 128 µg/mL
same,MIC,[27]; GROUP9960,2 µg/mL
same,MIC,[28],1 µg/mL
same,MIC,[29]; [52],> 128 µg/mL
same,MIC,"[30]; Staphylococcus aureus, X1.1",1 µg/mL
same,MIC,[31]; [52],16 µg/mL
